Laboratory results from a compilation of properties of binary mixtures (doi:10.1021/acs.jpcc.8b05573).

Experiment: xn = mol fraction of the nth substance listed
Conditions: 100 kPa, x1 = 0.24

Structure (SMILES): O=S(=O)([N-]S(=O)(=O)C(F)(F)F)C(F)(F)F.[Li+] + CCCC[N+]1(C)CCCC1.O=S(=O)([N-]S(=O)(=O)C(F)(F)F)C(F)(F)F
- electrical conductivity (272.9 K): 0.005 S/m
- electrical conductivity (279.8 K): 0.01 S/m
- electrical conductivity (288.8 K): 0.027 S/m
- electrical conductivity (295.1 K): 0.052 S/m
- electrical conductivity (305.1 K): 0.098 S/m
- electrical conductivity (325.1 K): 0.235 S/m
- electrical conductivity (338.2 K): 0.329 S/m
- electrical conductivity (360.2 K): 0.633 S/m
- electrical conductivity (371.2 K): 0.846 S/m
- electrical conductivity (385.4 K): 1.24 S/m
- electrical conductivity (409.4 K): 1.88 S/m
- electrical conductivity (429.6 K): 2.77 S/m

Structure (SMILES): O=S(=O)([N-]S(=O)(=O)C(F)(F)F)C(F)(F)F.O=S(=O)([N-]S(=O)(=O)C(F)(F)F)C(F)(F)F.[Mg+2] + CCCC[N+]1(C)CCCC1.O=S(=O)([N-]S(=O)(=O)C(F)(F)F)C(F)(F)F
- electrical conductivity (279.2 K): 0.003 S/m
- electrical conductivity (282.4 K): 0.005 S/m
- electrical conductivity (286.1 K): 0.006 S/m
- electrical conductivity (289.5 K): 0.009 S/m
- electrical conductivity (293 K): 0.013 S/m
- electrical conductivity (296.9 K): 0.017 S/m
- electrical conductivity (300.2 K): 0.022 S/m
- electrical conductivity (304.4 K): 0.031 S/m
- electrical conductivity (310.6 K): 0.046 S/m
- electrical conductivity (317.5 K): 0.07 S/m
- electrical conductivity (323.8 K): 0.096 S/m
- electrical conductivity (334.5 K): 0.159 S/m
- electrical conductivity (345.4 K): 0.252 S/m
- electrical conductivity (355.5 K): 0.346 S/m
- electrical conductivity (363.5 K): 0.461 S/m
- electrical conductivity (372.9 K): 0.574 S/m
- electrical conductivity (386 K): 0.786 S/m
- electrical conductivity (400.6 K): 1.08 S/m
- electrical conductivity (417.1 K): 1.44 S/m

Structure (SMILES): O=S(=O)([N-]S(=O)(=O)C(F)(F)F)C(F)(F)F.O=S(=O)([N-]S(=O)(=O)C(F)(F)F)C(F)(F)F.[Zn+2] + CCCC[N+]1(C)CCCC1.O=S(=O)([N-]S(=O)(=O)C(F)(F)F)C(F)(F)F
- electrical conductivity (337.3 K): 0.163 S/m
- electrical conductivity (344.9 K): 0.213 S/m
- electrical conductivity (366.8 K): 0.399 S/m
- electrical conductivity (375.2 K): 0.508 S/m
- electrical conductivity (391 K): 0.805 S/m
- electrical conductivity (430.4 K): 1.79 S/m
- electrical conductivity (449.5 K): 2.51 S/m

Structure (SMILES): O=S(=O)([N-]S(=O)(=O)C(F)(F)F)C(F)(F)F.[Na+] + CCCC[N+]1(C)CCCC1.O=S(=O)([N-]S(=O)(=O)C(F)(F)F)C(F)(F)F
- electrical conductivity (274.2 K): 0.006 S/m
- electrical conductivity (283.8 K): 0.02 S/m
- electrical conductivity (291.9 K): 0.041 S/m
- electrical conductivity (300.2 K): 0.07 S/m
- electrical conductivity (308.6 K): 0.119 S/m
- electrical conductivity (323.4 K): 0.223 S/m
- electrical conductivity (356.5 K): 0.663 S/m
- electrical conductivity (362.4 K): 0.805 S/m
- electrical conductivity (380.6 K): 1.24 S/m
- electrical conductivity (417.8 K): 2.45 S/m
- electrical conductivity (434.2 K): 3.04 S/m
